The compounds below were run against NSP14 (Severe acute respiratory syndrome coronavirus 2, UniProt P0DTD1) (assay: NSP14 MTase inhibition assay at 37° C. (MTase-Glo SAH detection)). Conditions: 0.3 nM NSP14, 2.5 μM SAM, 2.5 μM GpppA RNA, 45 min at 37° C.; read-out: Nsp14 Mtase Inh. IC50.
Format: biochemical, SARS-CoV-2
Experimental: NSP14 MTase assay at 37° C. (0.3 nM NSP14 as final enzyme concentration)
The NSP14 MTase assay at 37° C. is carried out in 384-well flat bottom polystyrene microplates (Greiner, 781075). Per well, 10 μl of 1×NSP14 reaction buffer (50 mM Tris-HCl, pH 7.5, 6 mM KCl, 1.25 mM MgCl2, 1 mM DTT, and 0.01% Tween-20) are dispensed in columns 1-23 using a Thermo Multidrop Combi dispenser (Thermo Scientific). 0.1 μl of serially diluted compounds in DMSO are dispensed into columns 1-22 of the assay microplates with a Janus 384 MDT NanoHead (PerkinElmer). In wells of column 23, which serve as negative controls, no compounds are added.
The NSP14 reaction is started by adding 4 μl of a 4× substrate solution containing S-adenosyl methionine (SAM, 10 μM) and GpppA RNA (10 μM) prepared in 1×NSP14 reaction buffer. Any addition of reagents is followed by a 30 second centrifugation at 500×g to ensure that all liquid was collected at the bottom of the well. The final concentrations of NSP14, SAM, and GpppA RNA are 0.3 nM, 2.5 μM, and 2.5 μM, respectively. The final reaction volume is 16 μl. Plates are sealed and incubated for 45 min at 37° C.
For SAH detection, 1 μl 5× MTase-Glo™ Reagent (Promega) is added to each well, plates are mixed for 1-2 minutes and incubated at room temperature for 30 minutes. 5 μl of room-temperature MTase-Glo™ Detection Solution (Promega) is added to each well, plates are mixed for 1-2 minutes and incubated at room temperature for 30 minutes. Luminescence signals of each well are recorded in relative light units (RLUs) using a Biotek Synergy Neo plate reader (BioTek, Winooski, VT). The SAH production is normalized against the positive control (PK, column 24) and negative control (NK, column 23) as follows: normalized % inhibition=100×(RLUsample-RLUaverageNK)/(RLUaveragePK-RLUaverageNK).

`Cc1c(S(=O)(=O)c2ccc3[nH]ncc3c2)cc(C(=O)N[C@H]2CN(c3ncc(F)cn3)C[C@H]2F)n1C` [A.48] and `COCC1(NC(=O)c2cc(S(=O)(=O)c3ccc4[nH]ncc4c3)c(C)n2C)CCN(c2ncc(F)cn2)C1` (single isomer, unassigned) [A.115, 4-((1H-indazol-5-yl)sulfonyl)-N-(1-(5-fluoropyrimidin-2-yl)-3-(methoxymethyl)pyrrolidin-3-yl)-1,5-dimethyl-1H-pyrrole-2-carboxamide] are within 1.5-fold of each other in IC50: 33 nM for the first, 37 nM for the second.

First: Cc1c(S(=O)(=O)c2ccc3[nH]ncc3c2)cc(C(=O)N[C@@H]2CCN(c3cccc(C#N)c3)C2)n1C [A.84]
Second: Cc1c(S(=O)(=O)c2ccc3[nH]ncc3c2)cc(C(=O)N[C@@H]2CCN(c3nccc(C#N)n3)C2)n1C [A.45]
The IC50 of the first is lower: less than 0.15 nM for the first, 0.37 nM for the second. The first is the more potent here.

Compared with `Cc1c(S(=O)(=O)c2ccc3c(cnn3C)c2)cc(C(=O)NCc2c(F)ccc3ncn(C4CC4)c23)n1C` [A.4, N-[(3-cyclopropyl-5-fluoro-benzimidazol-4-yl)methyl]-1,5-dimethyl-4-(1-methylindazol-5-yl)sulfonyl-pyrrole-2-carboxamide], `Cc1c(S(=O)(=O)c2ccc(F)cc2)cc(C(=O)NCc2cccc3cnn(C)c23)n1C` [A.17] is 32-fold higher in IC50: 0.5 nM for the first, 16 nM for the second. The first is the more potent here.

First: Cc1c(S(=O)(=O)c2cc(Cl)c3[nH]ncc3c2)cc(C(=O)N[C@@H]2CCN(c3ccc(C#N)cn3)C2)n1C [A.106]
Second: Cc1c(S(=O)(=O)c2ccc3[nH]ncc3c2)cc(C(=O)N[C@@H]2CCN(c3nccc(C(F)(F)F)n3)C2)n1C [A.66]
The IC50 of the first is lower: less than 0.15 nM for the first, 0.81 nM for the second.

`Cc1c(S(=O)(=O)c2ccc3[nH]ncc3c2)cc(C(=O)N[C@@H]2CCN(Cc3ccc(F)cn3)C2)n1C` [A.104] gave an IC50 of 4.3 nM.

Same assay, conditions: 37° C., 0.3 nM NSP14, 2.5 μM SAM, 2.5 μM GpppA RNA; read-out: Nsp14 Mtase Inh. IC50

Going from `Cc1c(S(=O)(=O)c2ccc3[nH]ncc3c2)cc(C(=O)NCc2c(F)ccc3c2N(C)C(=O)C32CC2)n1C` [B.145] to `Cc1c(S(=O)(=O)c2ccc3[nH]ncc3c2)cc(C(=O)NCc2c(F)ccc3c2N(C)C(=O)C3)n1C` [B.52], the IC50 rises from less than 0.15 nM to 0.15 nM.

Compared with `Cc1c(S(=O)(=O)c2cc(C#N)c3[nH]ncc3c2)cc(C(=O)NCc2c(F)ccc3cnn(C4CC4)c23)n1C` [B.98], `Cc1c(S(=O)(=O)c2cc(F)c3[nH]ncc3c2)cc(C(=O)NCc2c(F)ccc3cnn(C4CC4)c23)n1CCO` [B.89] is 5-fold lower in IC50: 0.5 nM for the first, 0.1 nM for the second.

Going from `Cc1c(S(=O)(=O)c2cc(F)c3[nH]ncc3c2)cc(C(=O)N[C@@H](C)c2cccc3cnn(C4CC4)c23)n1C` (single isomer, unassigned) [B.88] to `Cc1c(S(=O)(=O)c2cc(CO)c3[nH]ncc3c2)cc(C(=O)NCc2cccc3cnn(C4CC4)c23)n1C` [B.45], the IC50 falls from 22 nM to 4 nM (5.5-fold). The second is the more potent here.

First: Cc1c(S(=O)(=O)c2ccc3[nH]ncc3c2)cc(C(=O)NCc2cc(F)cc3cn(C)nc23)n1C [B.97]
Second: Cc1c(S(=O)(=O)c2ccc3[nH]ncc3c2)cc(C(=O)NCc2c(Cl)ccc(=O)n2C)n1C [B.174]
The IC50 of the first is 16-fold higher: 11 nM for the first, 0.7 nM for the second. The second is the more potent here.

Compared with `Cc1c(S(=O)(=O)c2ccc3c(cnn3C)c2)cc(C(=O)NCc2c(F)ccc3cnn(C4CC4)c23)n1CCCC#N` [B.61], `Cc1c(S(=O)(=O)c2ccc3c(=O)[nH]cnc3c2)cc(C(=O)NCc2cccc3cnn(C)c23)n1C` [B.8] is 27-fold higher in IC50: 2.6 nM for the first, 71 nM for the second.

First: Cc1c(S(=O)(=O)c2ccc3[nH]ncc3c2)cc(C(=O)N[C@H]2CCc3c(F)ccc(F)c32)n1C (single isomer, unassigned) [B.139]
Second: Cc1c(S(=O)(=O)c2ccc3[nH]nc(F)c3c2)cc(C(=O)NC2CCc3c2ccc(=O)n3C)n1C (racemic) [B.178]
The IC50 of the first is 16-fold lower: 1.3 nM for the first, 21 nM for the second.

First: Cc1c(S(=O)(=O)c2cnc3[nH]ncc3c2)cc(C(=O)NCc2cccc3cnn(C)c23)n1C [B.30]
Second: Cc1c(S(=O)(=O)c2ccc3[nH]ncc3c2)cc(C(=O)NCc2nccc3ncn(C4CC4)c23)n1C [B.117]
The IC50 of the first is 26-fold higher: 4.6 nM for the first, 0.18 nM for the second.

First: COc1ccc(CNC(=O)c2cc(S(=O)(=O)c3ccc4[nH]nc(F)c4c3)c(C)n2C)c(C(F)(F)F)n1 [B.176]
Second: Cc1c(S(=O)(=O)c2ccc3[nH]ncc3c2)cc(C(=O)NCc2c(Cl)cc[nH]c2=O)n1C [B.187]
The IC50 of the first is 11-fold higher: 7 nM for the first, 0.61 nM for the second. The second is the more potent here.
